Data reported in paper PMC5275761 (Biochemistry, 2016).

Molecular target: CYP3A4 (Homo sapiens, UniProt P08684, S18F)
Test: Stopped-flow spectroscopy of ligand binding to CYP3A4 nanodiscs
Details: faster in POPC nanodiscs

C[C@]12CC[C@H]3[C@@H](CCC4=CC(=O)CC[C@@]43C)[C@@H]1CC[C@@H]2O [TST, testosterone]
rate constant for binding in POPC nanodiscs relative to 25% POPC/75% DMPC nanodiscs: ~ 4 fold
